What all share (test): KINOMEscan (ScanMAX) kinase profiling
Assay type in all cases: binding

Assay [1] deals with T1, panel of 468 kinases (Homo sapiens, UniProt P21860).
T1 construct: purchased KINOMEscan (ScanMAX) service
To be noted: ERBB3; 1 μM; read-out: % control.

In assay [2] the target is T2, panel of 468 kinases (Homo sapiens, UniProt O15146).
T2 construct: purchased KINOMEscan (ScanMAX) service
T2 sequence (O15146 24-869): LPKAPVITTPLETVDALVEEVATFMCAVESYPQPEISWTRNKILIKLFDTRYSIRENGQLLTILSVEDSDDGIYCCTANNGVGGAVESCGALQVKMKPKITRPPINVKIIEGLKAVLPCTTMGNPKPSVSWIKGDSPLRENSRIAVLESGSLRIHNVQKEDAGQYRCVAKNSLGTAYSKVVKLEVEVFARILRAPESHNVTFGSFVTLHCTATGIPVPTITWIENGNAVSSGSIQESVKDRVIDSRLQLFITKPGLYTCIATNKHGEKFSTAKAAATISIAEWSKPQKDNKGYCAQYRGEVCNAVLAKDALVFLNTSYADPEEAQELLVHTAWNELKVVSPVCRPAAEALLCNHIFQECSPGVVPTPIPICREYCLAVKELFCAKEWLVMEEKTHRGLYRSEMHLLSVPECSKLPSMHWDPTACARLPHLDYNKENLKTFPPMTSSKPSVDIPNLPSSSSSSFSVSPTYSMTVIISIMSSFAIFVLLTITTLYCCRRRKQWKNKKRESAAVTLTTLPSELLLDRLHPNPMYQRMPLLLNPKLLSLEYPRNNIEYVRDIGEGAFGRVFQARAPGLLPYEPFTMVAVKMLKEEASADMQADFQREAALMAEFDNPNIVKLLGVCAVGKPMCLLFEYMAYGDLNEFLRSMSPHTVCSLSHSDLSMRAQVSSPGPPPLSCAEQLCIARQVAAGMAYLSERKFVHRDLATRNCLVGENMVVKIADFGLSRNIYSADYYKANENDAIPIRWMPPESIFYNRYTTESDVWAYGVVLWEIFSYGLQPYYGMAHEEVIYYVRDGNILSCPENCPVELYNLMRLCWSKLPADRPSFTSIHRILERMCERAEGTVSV
To be noted: MUSK; 1 μM; read-out: % control.

Assay [3] addresses T3, panel of 468 kinases (Plasmodium falciparum, UniProt P61075).
T3 construct: purchased KINOMEscan (ScanMAX) service
The conditions noted are these: PFPK5(P.falciparum); 1 μM; read-out: % control.

Assay [4] deals with T4, panel of 468 kinases (Homo sapiens, UniProt P48729).
T4 construct: purchased KINOMEscan (ScanMAX) service
T4 sequence (P48729 whole entry): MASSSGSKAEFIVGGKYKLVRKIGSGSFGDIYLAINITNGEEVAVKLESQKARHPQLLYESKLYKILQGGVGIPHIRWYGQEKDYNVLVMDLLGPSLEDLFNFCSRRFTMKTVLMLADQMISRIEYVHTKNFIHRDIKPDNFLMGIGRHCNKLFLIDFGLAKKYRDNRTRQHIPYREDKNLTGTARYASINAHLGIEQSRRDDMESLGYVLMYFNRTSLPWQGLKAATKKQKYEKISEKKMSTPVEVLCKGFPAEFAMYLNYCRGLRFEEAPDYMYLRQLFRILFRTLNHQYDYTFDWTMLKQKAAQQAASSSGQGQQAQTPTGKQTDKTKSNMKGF
The conditions noted are these: CSNK1A1; 1 μM; read-out: % control.

Assay [5] addresses T5, panel of 468 kinases (Homo sapiens, UniProt P21802).
T5 construct: purchased KINOMEscan (ScanMAX) service
To be noted: FGFR2; 1 μM; read-out: % control.

The target in assay [6] is T6, panel of 468 kinases (Homo sapiens, UniProt Q16659).
T6 construct: purchased KINOMEscan (ScanMAX) service
T6 sequence (Q16659 whole entry): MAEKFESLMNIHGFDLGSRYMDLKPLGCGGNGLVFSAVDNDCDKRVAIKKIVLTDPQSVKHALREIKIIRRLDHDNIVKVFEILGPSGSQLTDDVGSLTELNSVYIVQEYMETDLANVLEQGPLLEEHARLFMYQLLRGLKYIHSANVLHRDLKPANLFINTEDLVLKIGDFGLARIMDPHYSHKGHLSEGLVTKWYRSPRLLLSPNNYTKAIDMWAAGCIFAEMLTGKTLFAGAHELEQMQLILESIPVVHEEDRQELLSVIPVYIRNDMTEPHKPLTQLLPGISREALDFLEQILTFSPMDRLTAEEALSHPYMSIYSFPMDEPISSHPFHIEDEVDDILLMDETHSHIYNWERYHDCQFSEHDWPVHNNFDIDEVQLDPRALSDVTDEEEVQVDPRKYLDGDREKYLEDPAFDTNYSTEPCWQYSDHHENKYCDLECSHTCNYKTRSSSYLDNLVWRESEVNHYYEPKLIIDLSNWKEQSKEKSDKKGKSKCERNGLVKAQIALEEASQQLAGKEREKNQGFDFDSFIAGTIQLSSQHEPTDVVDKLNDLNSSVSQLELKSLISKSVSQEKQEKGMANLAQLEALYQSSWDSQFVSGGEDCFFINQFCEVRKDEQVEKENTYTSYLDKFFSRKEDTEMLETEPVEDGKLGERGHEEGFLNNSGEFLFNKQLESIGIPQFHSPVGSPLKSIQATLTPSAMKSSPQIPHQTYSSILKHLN
To be noted: ERK3; 1 μM; read-out: % control.

The target of assay [7] is T7, panel of 468 kinases (Homo sapiens, UniProt P10721, L576P).
T7 construct: purchased KINOMEscan (ScanMAX) service
T7 sequence (P10721 26-976 L576P): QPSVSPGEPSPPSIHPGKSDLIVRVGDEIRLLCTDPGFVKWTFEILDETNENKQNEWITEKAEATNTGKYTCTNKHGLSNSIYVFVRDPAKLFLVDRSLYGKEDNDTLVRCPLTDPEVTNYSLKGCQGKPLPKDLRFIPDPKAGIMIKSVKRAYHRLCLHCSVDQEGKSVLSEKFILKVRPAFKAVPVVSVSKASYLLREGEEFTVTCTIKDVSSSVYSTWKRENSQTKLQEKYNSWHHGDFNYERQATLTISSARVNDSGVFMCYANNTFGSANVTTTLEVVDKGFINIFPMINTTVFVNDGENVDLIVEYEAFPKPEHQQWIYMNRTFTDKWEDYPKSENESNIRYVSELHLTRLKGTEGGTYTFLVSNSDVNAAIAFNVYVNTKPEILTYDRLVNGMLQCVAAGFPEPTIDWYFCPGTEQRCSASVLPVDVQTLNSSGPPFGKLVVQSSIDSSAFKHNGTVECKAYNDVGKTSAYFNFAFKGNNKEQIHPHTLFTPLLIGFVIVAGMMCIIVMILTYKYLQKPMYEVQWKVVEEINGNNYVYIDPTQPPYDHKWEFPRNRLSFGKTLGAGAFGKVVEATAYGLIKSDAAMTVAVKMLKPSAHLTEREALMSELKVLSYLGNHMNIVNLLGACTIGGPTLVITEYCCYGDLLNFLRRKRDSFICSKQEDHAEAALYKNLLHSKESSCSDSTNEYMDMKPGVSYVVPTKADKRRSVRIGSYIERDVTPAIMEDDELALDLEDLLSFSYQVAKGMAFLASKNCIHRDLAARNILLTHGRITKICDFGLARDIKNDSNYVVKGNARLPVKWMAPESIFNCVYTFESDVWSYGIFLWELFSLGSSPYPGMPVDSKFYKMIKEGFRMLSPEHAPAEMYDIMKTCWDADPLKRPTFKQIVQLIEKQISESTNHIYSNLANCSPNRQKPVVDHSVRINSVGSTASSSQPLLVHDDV
The conditions noted are these: KIT(L576P); 1 μM; read-out: % control.

For assay [8], the target named is T8, panel of 468 kinases (Homo sapiens, UniProt O14578).
T8 construct: purchased KINOMEscan (ScanMAX) service
The conditions noted are these: CIT; 1 μM; read-out: % control.

Assay [9] has as its target T9, panel of 468 kinases (Homo sapiens, UniProt O14733).
T9 construct: purchased KINOMEscan (ScanMAX) service
T9 sequence (O14733 1-419): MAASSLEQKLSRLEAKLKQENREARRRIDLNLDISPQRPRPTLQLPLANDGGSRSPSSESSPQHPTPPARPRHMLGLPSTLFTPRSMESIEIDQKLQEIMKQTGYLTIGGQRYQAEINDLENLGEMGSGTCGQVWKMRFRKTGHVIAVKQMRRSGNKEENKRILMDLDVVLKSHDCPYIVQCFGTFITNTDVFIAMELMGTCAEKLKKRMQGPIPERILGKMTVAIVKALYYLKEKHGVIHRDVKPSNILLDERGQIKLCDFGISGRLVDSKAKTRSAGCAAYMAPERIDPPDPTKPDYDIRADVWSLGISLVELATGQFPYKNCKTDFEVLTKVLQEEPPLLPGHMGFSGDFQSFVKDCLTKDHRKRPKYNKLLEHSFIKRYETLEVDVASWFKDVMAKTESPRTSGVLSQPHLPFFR
The conditions noted are these: MKK7; 1 μM; read-out: % control.

The text below walks through data of patent US12479847B2 (DANA-FARBER CANCER INSTITUTE, INC., priority 2019, dated 2025).

T1 sequence (P21860 20-1342): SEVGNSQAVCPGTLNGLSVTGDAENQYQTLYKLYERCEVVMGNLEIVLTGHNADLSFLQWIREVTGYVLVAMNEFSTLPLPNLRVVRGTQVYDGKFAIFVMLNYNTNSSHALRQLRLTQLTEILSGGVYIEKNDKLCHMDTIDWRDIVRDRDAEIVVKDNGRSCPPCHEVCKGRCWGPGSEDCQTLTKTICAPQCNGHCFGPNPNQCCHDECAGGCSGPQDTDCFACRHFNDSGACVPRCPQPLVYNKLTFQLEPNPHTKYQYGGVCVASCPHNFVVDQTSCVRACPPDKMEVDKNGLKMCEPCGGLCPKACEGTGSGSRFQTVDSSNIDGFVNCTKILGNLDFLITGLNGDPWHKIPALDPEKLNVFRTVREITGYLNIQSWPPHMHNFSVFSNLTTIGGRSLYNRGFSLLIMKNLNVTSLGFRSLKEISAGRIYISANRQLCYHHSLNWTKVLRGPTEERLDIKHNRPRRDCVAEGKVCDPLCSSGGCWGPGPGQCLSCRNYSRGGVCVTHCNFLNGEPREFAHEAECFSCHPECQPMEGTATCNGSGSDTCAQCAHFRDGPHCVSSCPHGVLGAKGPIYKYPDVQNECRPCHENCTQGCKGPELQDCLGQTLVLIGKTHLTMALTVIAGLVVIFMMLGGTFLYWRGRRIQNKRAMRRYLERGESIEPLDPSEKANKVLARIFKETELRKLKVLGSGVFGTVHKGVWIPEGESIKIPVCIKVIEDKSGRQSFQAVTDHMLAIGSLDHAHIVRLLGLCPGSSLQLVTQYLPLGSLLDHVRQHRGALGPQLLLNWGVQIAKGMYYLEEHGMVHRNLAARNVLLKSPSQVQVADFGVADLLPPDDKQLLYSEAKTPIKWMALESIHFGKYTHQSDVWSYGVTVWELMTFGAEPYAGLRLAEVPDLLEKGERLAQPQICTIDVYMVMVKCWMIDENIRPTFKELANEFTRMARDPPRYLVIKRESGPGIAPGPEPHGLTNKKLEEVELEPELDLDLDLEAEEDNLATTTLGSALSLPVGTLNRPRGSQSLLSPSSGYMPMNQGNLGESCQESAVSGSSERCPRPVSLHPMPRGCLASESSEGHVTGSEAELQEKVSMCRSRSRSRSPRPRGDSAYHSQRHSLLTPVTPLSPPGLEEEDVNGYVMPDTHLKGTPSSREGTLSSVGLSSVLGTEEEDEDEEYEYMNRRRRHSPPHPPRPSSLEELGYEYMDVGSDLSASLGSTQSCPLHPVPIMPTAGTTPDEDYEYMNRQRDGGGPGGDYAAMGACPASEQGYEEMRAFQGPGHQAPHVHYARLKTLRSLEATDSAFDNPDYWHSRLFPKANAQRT
T3 sequence (P61075 whole entry): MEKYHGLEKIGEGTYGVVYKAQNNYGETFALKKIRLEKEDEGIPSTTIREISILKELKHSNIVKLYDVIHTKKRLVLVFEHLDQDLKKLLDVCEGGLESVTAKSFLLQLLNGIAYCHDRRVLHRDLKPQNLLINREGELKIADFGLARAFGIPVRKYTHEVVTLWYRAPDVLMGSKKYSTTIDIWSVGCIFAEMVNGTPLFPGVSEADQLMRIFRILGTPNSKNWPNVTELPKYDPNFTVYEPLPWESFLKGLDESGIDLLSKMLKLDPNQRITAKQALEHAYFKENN
T5 sequence (P21802 22-821): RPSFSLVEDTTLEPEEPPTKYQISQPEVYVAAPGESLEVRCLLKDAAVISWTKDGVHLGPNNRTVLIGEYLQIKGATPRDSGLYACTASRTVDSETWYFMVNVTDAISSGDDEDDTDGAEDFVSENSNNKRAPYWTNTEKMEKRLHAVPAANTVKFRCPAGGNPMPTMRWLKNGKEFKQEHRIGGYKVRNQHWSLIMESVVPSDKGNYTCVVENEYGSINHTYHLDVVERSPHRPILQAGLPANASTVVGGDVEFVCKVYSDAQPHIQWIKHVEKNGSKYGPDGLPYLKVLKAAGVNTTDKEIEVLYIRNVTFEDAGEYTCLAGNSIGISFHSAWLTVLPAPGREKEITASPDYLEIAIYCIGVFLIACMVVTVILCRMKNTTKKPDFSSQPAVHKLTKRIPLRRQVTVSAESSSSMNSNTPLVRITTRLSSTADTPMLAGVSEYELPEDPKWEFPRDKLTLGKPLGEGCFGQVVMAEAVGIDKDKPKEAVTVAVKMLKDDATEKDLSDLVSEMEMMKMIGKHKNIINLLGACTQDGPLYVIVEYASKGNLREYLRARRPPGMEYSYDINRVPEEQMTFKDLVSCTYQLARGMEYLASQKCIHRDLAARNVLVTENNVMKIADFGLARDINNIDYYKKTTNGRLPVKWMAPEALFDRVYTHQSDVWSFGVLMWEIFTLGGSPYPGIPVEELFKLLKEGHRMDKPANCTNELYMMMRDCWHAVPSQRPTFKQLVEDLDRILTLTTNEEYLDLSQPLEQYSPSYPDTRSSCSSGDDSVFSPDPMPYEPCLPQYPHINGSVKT

On to `CNc1nc(Nc2ccc(C(=O)N3CCC(N4CCOCC4)CC3)c3c2OCO3)nc2[nH]cc(Cl)c12` [Compound 75, (7-((5-chloro-4-(methylamino)-7H-pyrrolo[2,3-d]pyrimidin-2-yl)amino)benzo[d][1,3]dioxol-4-yl)(4-morpholinopiperidin-1-yl)methanone], for which the remaining binding at 1 µM on panel of 468 kinases [1] was found to be 38%; on panel of 468 kinases [2], 21%; at panel of 468 kinases [3], 65%; at panel of 468 kinases [4], 32%; at panel of 468 kinases [5], 97%; on panel of 468 kinases [6], 91%. In addition, the remaining binding at 1 µM at panel of 468 kinases [7] is 36%; at panel of 468 kinases [8] it was 35%; on panel of 468 kinases [9] it was 96%.
As to `CNc1nc(Nc2ccc(P3(=O)CCN(C4CCOCC4)CC3)cc2OC)nc2[nH]cc(Cl)c12` [Compound 77, 4-(4-((5-chloro-4-(methylamino)-7H-pyrrolo[2,3-d]pyrimidin-2-yl)amino)-3-methoxyphenyl)-1-(tetrahydro-2H-pyran-4-yl)-1,4-azaphosphinane 4-oxide], the remaining binding at 1 µM came to 35% at panel of 468 kinases [1]; 72% at panel of 468 kinases [2]; 75% at panel of 468 kinases [3]; 27% on panel of 468 kinases [4]; 100% on panel of 468 kinases [5]; 99% at panel of 468 kinases [6]. In addition, the remaining binding at 1 µM at panel of 468 kinases [7] stood at 100%; at panel of 468 kinases [8], 93%; on panel of 468 kinases [9], 100%.
In the case of `CNc1nc(Nc2ccc(S(=O)(=O)N3CCC(N4CCOCC4)CC3)cc2OC)nc2[nH]cc(Cl)c12` [Compound 12, 5-chloro-N2-(2-methoxy-4-((4-morpholinopiperidin-1-yl)sulfonyl)phenyl)-N4-methyl-7H-pyrrolo[2,3-d]pyrimidine-2,4-diamine], the remaining binding at 1 µM is 38% at panel of 468 kinases [1]; 98% on panel of 468 kinases [2]; 64% on panel of 468 kinases [3]; 48% on panel of 468 kinases [4]; 100% on panel of 468 kinases [5]; 100% at panel of 468 kinases [6]. For the same compound, the figures for the remaining binding at 1 µM on panel of 468 kinases [7], at panel of 468 kinases [8] and at panel of 468 kinases [9] were 97%, 85% and 100%, respectively.
